Legend:
Type in all cases: in vivo
[1] = test system: Myzus persicae (Green Peach Aphid); test: Myzus persicae (Green Peach Aphid): feeding/contact activity, eggplant leaf discs; settings: foliar, 144 h, application rate of 200 ppm, mixed ages on sprayed eggplant leaf discs, 6 days after infestation, read-out: growth inhibition
Procedure: Example B12: Myzus persicae (Green Peach Aphid) Feeding/Contact Activity Eggplant leaf discs were placed onto agar in a 24-well microtiter plate and sprayed with aqueous test solutions prepared from 10′000 ppm DMSO stock solutions. After drying, the leaf discs were infested with an aphid population of mixed ages. The samples were assessed for mortality 6 days after infestation.

[2] = test system: Bemisia tabaci (Cotton White Fly); test: Bemisia tabaci (Cotton White Fly): feeding/contact activity, cotton leaf discs; settings: foliar, 144 h, application rate of 200 ppm, adult white flies on sprayed cotton leaf discs, 6 days after incubation, read-out: mortality
Procedure: Example B1: Bemisia tabaci (Cotton White Fly): Feeding/Contact Activity
Cotton leaf discs were placed on agar in 24-well microtiter plates and sprayed with aqueous test solutions prepared from 10′000 ppm DMSO stock solutions. After drying the leaf discs were infested with adult white flies. The samples were checked for mortality 6 days after incubation.

[3] = test system: Diabrotica balteata (Corn Root Worm); test: whole plant or invertebrate; settings: 96 h, application rate of 200 ppm, L2 larvae on sprayed maize sprouts, 4 days after infestation, read-out: effect in at least one of the two categories (mortality or growth inhibition)
Procedure: Example B3: Diabrotica balteata (Corn Root Worm)
Maize sprouts placed onto an agar layer in 24-well microtiter plates were treated with aqueous test solutions prepared from 10′000 ppm DMSO stock solutions by spraying. After drying, the plates were infested with L2 larvae (6 to 10 per well). The samples were assessed for mortality and growth inhibition in comparison to untreated samples 4 days after infestation.

[4] = test system: Euschistus heros (Neotropical Brown Stink Bug); test: Euschistus heros (Neotropical Brown Stink Bug), soybean leaves; settings: 120 h, application rate of 200 ppm, N2 nymphs on sprayed soybean leaves, 5 days after infestation, read-out: effect in at least one of the two categories (mortality or growth inhibition)
Procedure: Example B4: Euschistus heros (Neotropical Brown Stink Bug)
Soybean leaves on agar in 24-well microtiter plates were sprayed with aqueous test solutions prepared from 10′000 ppm DMSO stock solutions. After drying the leaves were infested with N2 nymphs. The samples were assessed for mortality and growth inhibition in comparison to untreated samples 5 days after infestation.

[5] = test system: Frankliniella occidentalis (Western Flower Thrips); test: Frankliniella occidentalis (Western Flower Thrips): feeding/contact activity, sunflower leaf discs; settings: foliar, 168 h, application rate of 200 ppm, mixed ages on sprayed sunflower leaf discs, 7 days after infestation
Procedure: Example B5: Frankliniella occidentalis (Western Flower Thrips): Feeding/Contact Activity
Sunflower leaf discs were placed on agar in 24-well microtiter plates and sprayed with aqueous test solutions prepared from […] stock solutions. After drying the leaf discs were infested with a Frankliniella population of mixed ages. The samples were assessed for mortality 7 days after infestation.

[6] = test system: Myzus persicae (Green Peach Aphid); test: Myzus persicae (Green Peach Aphid): feeding/contact activity, sunflower leaf discs; settings: foliar, 144 h, application rate of 200 ppm, mixed ages on sprayed sunflower leaf discs, 6 days after infestation, read-out: mortality
Procedure: Example B6: Myzus persicae (Green Peach Aphid): Feeding/Contact Activity
Sunflower leaf discs were placed onto agar in a 24-well microtiter plate and sprayed with aqueous test solutions prepared from 10′000 ppm DMSO stock solutions. After drying, the leaf discs were infested with an aphid population of mixed ages. The samples were assessed for mortality 6 days after infestation.

[7] = test system: Myzus persicae (Green Peach Aphid); test: Myzus persicae (Green Peach Aphid): systemic activity, pea seedlings; settings: 144 h, test rate of 24 ppm, systemic, roots of infested pea seedlings in test solution, 6 days, read-out: mortality
Procedure: Example B7: Myzus persicae (Green Peach Aphid). Systemic Activity
Roots of pea seedlings infested with an aphid population of mixed ages were placed directly into aqueous test solutions prepared from 10′000 DMSO stock solutions. The samples were assessed for mortality 6 days after placing seedlings into test solutions.

[8] = test system: Myzus persicae (Green Peach Aphid); test: Myzus persicae (Green Peach Aphid): intrinsic activity, sucrose solution; settings: 120 h, test rate of 12 ppm, intrinsic, mixed with sucrose solution under Parafilm, 5 days after infestation, read-out: mortality
How it was run: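 Compounds from 10′000 ppm DMSO stocks mixed with sucrose solution in wells sealed with Parafilm; aphid-infested pea seedlings placed on the Parafilm and the assembly inverted so aphids feed through the membrane. Mortality assessed 5 days after infestation.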

[9] = test system: Plutella xylostella (Diamond Back Moth); test: Plutella xylostella (Diamond Back Moth), artificial diet; settings: 192 h, application rate of 200 ppm, eggs on treated artificial diet, 8 days after infestation, read-out: effect in at least one of the two categories (mortality or growth inhibition)
Procedure: Example B9: Plutella xylostella (Diamond Back Moth)
24-well microtiter plates with artificial diet were treated with aqueous test solutions prepared from 10′000 ppm DMSO stock solutions by pipetting. After drying, Plutella eggs were pipetted through a plastic stencil onto a gel blotting paper and the plate was closed with it. The samples were assessed for mortality and growth inhibition in comparison to untreated samples 8 days after infestation.

[10] = test system: Tetranychus urticae (Two-Spotted Spider Mite); test: whole plant or invertebrate; settings: foliar, 192 h, application rate of 200 ppm, mixed population (mobile stages) on sprayed bean leaf discs, 8 days after infestation, read-out: mortality
Procedure: Example B11: Tetranychus urticae (Two-Spotted Spider Mite): Feeding/Contact Activity
Bean leaf discs on agar in 24-well microtiter plates were sprayed with aqueous test solutions prepared from 10′000 ppm DMSO stock solutions. After drying the leaf discs were infested with a mite population of mixed ages. The samples were assessed for mortality on mixed population (mobile stages) 8 days after infestation.

[11] = test system: Chilo suppressalis (Striped Rice Stemborer); test: Chilo suppressalis (Striped Rice Stemborer), artificial diet; settings: 144 h, application rate of 200 ppm, L2 larvae on treated artificial diet, 6 days after infestation, read-out: control (at least one of mortality, anti-feedant effect, growth inhibition)
Procedure: Example B2: Chilo suppressalis (Striped Rice Stemborer)
24-well microtiter plates with artificial diet were treated with aqueous test solutions prepared from 10′000 ppm DMSO stock solutions by pipetting. After drying, the plates were infested with L2 larvae (6-8 per well). The samples were assessed for mortality, anti-feeding effect, and growth inhibition in comparison to untreated samples 6 days after infestation. Control of Chilo suppressalis by a test sample is given when at least one of the categories mortality, anti-feedant effect, and growth inhibition is higher than the untreated sample.

Spodoptera littoralis = Spodoptera littoralis (Egyptian Cotton Leaf Worm), cotton leaf discs; settings: foliar, 72 h, application rate of 200 ppm, L1 larvae on sprayed cotton leaf discs, 3 days after infestation, read-out: control (at least one of mortality, anti-feedant effect, growth inhibition)
Procedure: Example B10: Spodoptera littoralis (Eaytian Cotton Leaf Worm)
Cotton leaf discs were placed onto agar in 24-well microtiter plates and sprayed with aqueous test solutions prepared from 10′000 ppm DMSO stock solutions. After drying the leaf discs were infested with five L1 larvae. The samples were assessed for mortality, anti-feeding effect, and growth inhibition in comparison to untreated samples 3 days after infestation. Control of Spodoptera littoralis by a test sample is given when at least one of the categories mortality, anti-feedant effect, and growth inhibition is higher than the untreated sample.

C[C@@H](COc1cc(C(=O)NC2(C#N)CC2)c(Cl)nn1)NS(=O)(=O)C(F)(F)F [Compound P89, 3-chloro-N-(1-cyanocyclopropyl)-6-[(2S)-2-(trifluoromethylsulfonylamino)propoxy]pyridazine-4-carboxamide]
≥ 80%: inhibition at 200 ppm [1]

C[C@@H](COc1cnc(Cl)c(C(=O)NC2CC2)c1)NS(=O)(=O)C(F)(F)F [Compound P-1, 2-chloro-N-cyclopropyl-5-[(2S)-2-(trifluoromethylsulfonylamino)propoxy]pyridine-3-carboxamide]
≥ 80%: mortality at 200 ppm [2] | percent effect (mortality or growth inhibition) at 200 ppm [3] | percent effect (mortality or growth inhibition) at 200 ppm [4] | mortality at 200 ppm [5] | mortality at 200 ppm [6] | mortality at 24 ppm [7] | mortality at 12 ppm [8] | percent effect (mortality or growth inhibition) at 200 ppm [9] | mortality at 200 ppm [10]

C[C@@H](COc1cnc(Cl)c(C(=O)NC2(C#N)CC2)c1)NS(=O)(=O)C(F)(F)F [Compound P-2, 2-chloro-N-(1-cyanocyclopropyl)-5-[(2S)-2-(trifluoromethylsulfonylamino)propoxy]pyridine-3-carboxamide]
≥ 80%: mortality at 200 ppm [2] | percent control (mortality, anti-feedant effect or growth inhibition) at 200 ppm [11] | percent effect (mortality or growth inhibition) at 200 ppm [3] | percent effect (mortality or growth inhibition) at 200 ppm [4] | mortality at 200 ppm [5] | mortality at 200 ppm [6] | mortality at 24 ppm [7] | mortality at 12 ppm [8] | percent control (mortality, anti-feedant effect or growth inhibition) at 200 ppm (Spodoptera littoralis)

C[C@@H](COc1cnc(Cl)c(C(=O)NC2(C#N)CC2)c1)N(C)S(=O)(=O)C(F)(F)F [Compound P-7, 2-chloro-N-(1-cyanocyclopropyl)-5-[(2S)-2-[methyl(trifluoromethylsulfonyl)amino]propoxy]pyridine-3-carboxamide]
≥ 80%: mortality at 200 ppm [2] | percent effect (mortality or growth inhibition) at 200 ppm [3] | mortality at 200 ppm [5] | mortality at 24 ppm [7] | mortality at 12 ppm [8]

Cc1cc(F)ccc1NC(=O)c1cc(OC[C@H](C)NS(=O)(=O)C(F)(F)F)cnc1Cl [Compound P-60, 2-chloro-N-(4-fluoro-2-methyl-phenyl)-5-[(2S)-2-(trifluoromethylsulfonylamino)propoxy]pyridine-3-carboxamide]
≥ 80%: mortality at 12 ppm [8] | percent effect (mortality or growth inhibition) at 200 ppm [9] | percent control (mortality, anti-feedant effect or growth inhibition) at 200 ppm (Spodoptera littoralis) | mortality at 200 ppm [10]

COCN([C@@H](C)COc1cnc(Cl)c(C(=O)NCC(F)(F)F)c1)S(=O)(=O)C(F)(F)F [Compound P-63, 2-chloro-5-[(2S)-2-[methoxymethyl(trifluoromethylsulfonyl)amino]propoxy]-N-(2,2,2-trifluoroethyl)pyridine-3-carboxamide]
≥ 80%: mortality at 200 ppm [2] | percent control (mortality, anti-feedant effect or growth inhibition) at 200 ppm [11] | percent effect (mortality or growth inhibition) at 200 ppm [4] | mortality at 12 ppm [8] | mortality at 200 ppm [10]

COCN([C@@H](C)COc1cnc(Cl)c(C(=O)NC2CC2)c1)S(=O)(=O)C(F)(F)F [Compound P-64, 2-chloro-N-cyclopropyl-5-[(2S)-2-[methoxymethyl(trifluoromethylsulfonyl)amino]propoxy]pyridine-3-carboxamide]
≥ 80%: mortality at 200 ppm [2] | percent effect (mortality or growth inhibition) at 200 ppm [3] | percent effect (mortality or growth inhibition) at 200 ppm [4] | mortality at 200 ppm [5] | mortality at 200 ppm [6] | mortality at 24 ppm [7] | mortality at 12 ppm [8] | mortality at 200 ppm [10]

CCN1OC[C@@H](NC(=O)c2cc(OC[C@H](C)NS(=O)(=O)C(F)(F)F)cnc2Cl)C1=O [Compound P-65, 2-chloro-N-[(4R)-2-ethyl-3-oxo-isoxazolidin-4-yl]-5-[(2S)-2-(trifluoromethylsulfonylamino)propoxy]pyridine-3-carboxamide]
≥ 80%: percent control (mortality, anti-feedant effect or growth inhibition) at 200 ppm (Spodoptera littoralis) | mortality at 200 ppm [10]
